From paper PMC6368403, “Identification of a bilirubin receptor that may mediate a component of cholestatic itch” (eLife, 2019)
Values joined by “and” are separate entries in the source; they are usually repeats but may differ in a detail not shown here. Equal values may be shown once.

Columns and labels:
[1] = system: mice; test: Cheek injection model: scratching bouts and wiping; assay type: in vivo, mouse
Method: All applicable behavioral tests were performed and analysed with the experimenter blind to genotype. […] There were no significant differences in itch between male and female mice. […] On the day before the experiment, animals were placed in the test chamber for 30 min before being subjected to a series of three mock injections with 5 min break periods in between. On the day of the experiment, animals were first allowed to acclimatize to the test chamber for 10 min before injection. […] A bout of scratching was defined as a continuous scratching movement with either hindpaw directed at the area of the injection site. In the cheek injection model, a wipe was defined as a single forepaw stroking the site of the injection. Use of both forepaws on the face or cheek was considered as grooming behavior. […] For H1R block, 30 mg/kg of cetirizine HCl (pH 7.4) was given intraperitoneally thirty minutes prior to injection of bilirubin. Licking behavior was quantified in seconds and identified as the licking of the toes or footpad of the hind paw site of injection that was neither preceded nor followed by licking of any other portion of the body.

[2] = system: murine peritoneal mast cells; test: Ca2+ imaging of murine peritoneal mast cells; assay type: cell-based, mouse; conditions: 100 µM bilirubin
Method: All cultured cells were maintained in DMEM supplemented with 10% FBS and 1% Penicillin/Streptomycin at 37°C, 5% CO2. All data included were generated from cells tested for mycoplasma and found to be negative. Cells were imaged in calcium imaging buffer (CIB; 10 mM HEPES, 1.2 mM NaHCO3, 130 mM NaCl, 3 mM KCl, 2.5 mM CaCl2, 0.6 mM MgCl2, 20 mM glucose, and 20 mM sucrose at pH 7.4 and 290–300 mOsm). To monitor changes in intracellular [Ca^2+] ([Ca^2+]i), cells were loaded with either Fura 2-AM (HEK293 cells) or Fluo 4-AM (DRG neurons and mast cells) for 30 min in the dark at 37°C in CIB just prior to imaging. With Fura 2-AM, emission at 510 nm was monitored from excitation at both 340 nm and 380 nm. With Fluo 4-AM, emission at 520 nm was monitored from excitation at 488 nm. Cells were identified as responding if the intracellular [Ca^2+] rose by either 50% compared to baseline or 50% compared to the [Ca^2+]i change assayed during addition of 50 mM KCl (neurons only). Damaged, detached, high-baseline, and motion-activated cells were excluded from analysis.
Mast cells were purified as described and plated onto glass coverslips coated with […] fibronectin and allowed to recover for 2 hr at 37°C. Cells were then loaded with Fluo-4 AM.
Adult male mice 8–12 weeks of age were sacrificed through CO2 inhalation. […]

[3] = biological target: T1, MRGPRX4 (Homo sapiens, UniProt Q96LA9); test: [35S]GTPγS binding to MRGPRX4 membrane complexes; assay type: biochemical; conditions: 50 μM bilirubin
T1 construct: expressed in transfected cells
Method: MRGPR activation was determined by measuring binding of a radiolabelled and non-hydrolyzable form of GTP, [^35S]guanosine-5’-(γ-thio)triphosphate ([^35S]GTPγS) as previously described ([Vasavda et al., 2017]). Briefly, 10 µg of crude membrane fractions were diluted into 175 µL assay buffer (50 mM HEPES, 5 mM MgCl2, 100 mM NaCl, 1 mM EDTA, 0.1% […]) supplemented with 10 µM GDP and incubated at room temperature for 5 min. Membranes were then incubated an additional 1 min in a final volume of 199 μL assay buffer supplemented with 50 μM bilirubin. Samples were then brought to 200 μL with the addition of 10 nM [^35S]GTPγS. Samples were incubated for 2 hr at 4°C with gentle agitation. The experiment was terminated by rapid filtration onto GF/B filters and washed three times with wash buffer (50 mM Tris-HCl, 5 mM MgCl2, and 50 mM NaCl at pH 7.4). Filters were then immersed in scintillation cocktail and counted. Nonspecific binding was determined by competition with 10 μM unlabelled GTPγS. GTPγS binding assays were performed as two independent experiments, in triplicate.

[4] = system: DRG sensory neurons; test: In vivo DRG calcium imaging in Pirt-Cre; lsl-GCaMP6s animals; parameters: species or system mouse; conditions: 5 μL of 100 μM bilirubin into the paw of GCaMP6s mice
Method: Adult mice expressing Pirt-Cre and lox-stop-lox GCaMP6s were anesthetized by i.p. injection of chloral hydrate (20 μl/gram of 25 mg/ml solution). The back was shaved and disinfected with alcohol before application of ophthalmic ointment (Lacrilube; Allergen Pharmaceuticals). A dorsal laminectomy was performed below the lumbar enlargement (L5) targeting S1. During the procedure, care was taken to keep dura intact. A 2 cm incision was made at the lumbar enlargement. 0.1 mL of 1% lidocaine was injected into paravertebral muscles before dissection to expose L3–L5 vertebrae. Using rongeurs, the surface aspect of the L4 DRG transverse process was removed and the underlying DRG exposed. Mice were laid abdomen-down on a custom-designed microscope stage and the spinal column was secured at two sites using clamps. Images were acquired using a laser-scanning confocal microscope (Leica LSI microscope) equipped with a […] 0.5 NA macro dry objective and fast EM-CCD camera. Live images were acquired at 8 to 10 frames in frame-scan mode per 7–8 s, at depths of […] below the dura with the DRG in the focal plane. […]
Raw image stacks were collected, deconvoluted, and imported into ImageJ (NIH). […] Calcium signaling amplitudes were expressed as Ft /F0 as a function of time. […]

T1 sequence (Q96LA9 whole entry): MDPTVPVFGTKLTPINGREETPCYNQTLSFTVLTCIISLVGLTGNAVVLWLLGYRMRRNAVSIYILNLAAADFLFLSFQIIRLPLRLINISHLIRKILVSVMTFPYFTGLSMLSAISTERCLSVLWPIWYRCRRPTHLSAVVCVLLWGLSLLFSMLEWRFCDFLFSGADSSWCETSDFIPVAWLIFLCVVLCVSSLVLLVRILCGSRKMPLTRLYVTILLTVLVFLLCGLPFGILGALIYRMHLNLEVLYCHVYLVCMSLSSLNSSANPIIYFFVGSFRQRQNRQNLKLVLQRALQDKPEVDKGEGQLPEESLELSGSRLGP

## C=CC1=C(C)/C(=C/c2[nH]c(Cc3[nH]c(/C=C4\NC(=O)C(C)=C4C=C)c(C)c3CCC(=O)O)c(CCC(=O)O)c2C)NC1=O [bilirubin, bilirubin IXα]
[1]; 6 µg bilirubin into the cheek, 10 min
  Wiping: neither wiping
[1]; cheek, 10 µl, 30 min
  Scratching after cheek injection: prompted dose-dependent scratching
[2]
  Calcium response of peritoneal mast cells: did not elicit a calcium response
[3]
  GTP binding to MRGPRX4 membrane complexes: increased GTP binding
[3]; MRGPRX4 membrane complexes (Fig 2K)
  [35S]GTPγS binding: 175 and 229 and 223
[4]
  Activation of DRG sensory neurons in vivo: activated numerous DRG sensory neurons
